According to US10479795B2 (Incyte Corporation, priority 2016, dated 2019):
Counter-ions that a name gives are not always drawn. Like-named read-outs stand apart in the source and are kept apart here.

Columns and labels:
[1] = test system: Phosphorylated Ribosomal Protein S6 (RPS6); assay: THP-1 RPS6 ELISA Assay; assay type: cell-based, Human; details: THP-1 cells, read-out: PI3Kγ_THP1_RPS6_ELISA IC50
How it was run: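 IC50 values come from a curve of percent inhibition against log compound concentration, using phospho-RPS6 ELISA (450 nm) on THP-1 lysates. Cells were serum-starved overnight, exposed to compound for 2 h at 37 °C, then challenged 15 min with 10 nM MCP-1.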

[2] = target: PI3Kγ (p110γ) Recombinant Human Protein (Homo sapiens (Human), UniProt P48736); assay: PI3K-γ Scintillation Proximity Assay; assay type: biochemical; details: read-out: PI3Kγ IC50
How it was run: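 Radiometric SPA readout: […] bound to WGA beads after overnight shaking, IC50 derived from % activity of DMSO control. Reaction used human p110γ, 2 μM ATP, 20 μM PIP2, pH 6.7 MOPS buffer with MgCl2, DTT, CHAPS, 2% DMSO, room temperature.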

[3] = target: PI3Kδ (p110δ/p85α) Recombinant Human Protein (Homo sapiens (Human), UniProt O00329); assay: PI3Kδ Scintillation Proximity Assay; assay type: biochemical
How it was run: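 Radiometric read-out: 33P-labelled PIP3 product captured on WGA SPA beads and counted, with IC50 fitted from percent activity relative to DMSO control. Enzyme (3.4 nM) was incubated 120 min at room temperature with 20 μM PIP2 and 2 μM ATP at pH 6.7, 2% DMSO.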

Chain of PI3Kγ (p110γ) Recombinant Human Protein (P48736 whole entry): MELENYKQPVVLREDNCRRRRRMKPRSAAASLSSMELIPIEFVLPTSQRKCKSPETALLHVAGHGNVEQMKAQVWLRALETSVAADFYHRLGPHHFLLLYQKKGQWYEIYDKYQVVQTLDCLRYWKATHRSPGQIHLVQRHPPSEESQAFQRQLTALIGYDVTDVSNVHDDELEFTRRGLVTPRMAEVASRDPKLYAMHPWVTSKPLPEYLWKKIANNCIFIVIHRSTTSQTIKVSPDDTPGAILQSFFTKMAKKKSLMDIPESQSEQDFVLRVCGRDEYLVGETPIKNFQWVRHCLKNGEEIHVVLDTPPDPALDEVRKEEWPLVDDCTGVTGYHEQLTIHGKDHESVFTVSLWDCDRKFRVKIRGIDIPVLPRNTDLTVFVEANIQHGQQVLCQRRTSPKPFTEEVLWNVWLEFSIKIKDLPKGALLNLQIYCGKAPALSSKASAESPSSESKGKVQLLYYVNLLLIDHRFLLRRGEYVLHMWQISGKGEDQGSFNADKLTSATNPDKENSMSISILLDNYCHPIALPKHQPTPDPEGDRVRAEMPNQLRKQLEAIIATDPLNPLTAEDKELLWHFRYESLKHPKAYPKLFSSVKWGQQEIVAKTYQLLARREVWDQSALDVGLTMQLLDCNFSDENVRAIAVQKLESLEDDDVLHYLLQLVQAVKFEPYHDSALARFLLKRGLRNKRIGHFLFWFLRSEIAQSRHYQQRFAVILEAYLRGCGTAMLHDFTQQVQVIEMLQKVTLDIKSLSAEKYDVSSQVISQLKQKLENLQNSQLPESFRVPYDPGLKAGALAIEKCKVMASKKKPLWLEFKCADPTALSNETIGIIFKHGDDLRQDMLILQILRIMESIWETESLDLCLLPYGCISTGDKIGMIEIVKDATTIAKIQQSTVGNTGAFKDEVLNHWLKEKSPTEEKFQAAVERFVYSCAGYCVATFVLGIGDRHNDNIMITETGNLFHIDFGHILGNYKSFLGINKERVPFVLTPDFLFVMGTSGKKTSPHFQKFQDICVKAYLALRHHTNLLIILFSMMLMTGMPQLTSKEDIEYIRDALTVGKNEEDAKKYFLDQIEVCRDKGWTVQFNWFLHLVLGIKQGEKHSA
Chain of PI3Kδ (p110δ/p85α) Recombinant Human Protein (O00329 whole entry): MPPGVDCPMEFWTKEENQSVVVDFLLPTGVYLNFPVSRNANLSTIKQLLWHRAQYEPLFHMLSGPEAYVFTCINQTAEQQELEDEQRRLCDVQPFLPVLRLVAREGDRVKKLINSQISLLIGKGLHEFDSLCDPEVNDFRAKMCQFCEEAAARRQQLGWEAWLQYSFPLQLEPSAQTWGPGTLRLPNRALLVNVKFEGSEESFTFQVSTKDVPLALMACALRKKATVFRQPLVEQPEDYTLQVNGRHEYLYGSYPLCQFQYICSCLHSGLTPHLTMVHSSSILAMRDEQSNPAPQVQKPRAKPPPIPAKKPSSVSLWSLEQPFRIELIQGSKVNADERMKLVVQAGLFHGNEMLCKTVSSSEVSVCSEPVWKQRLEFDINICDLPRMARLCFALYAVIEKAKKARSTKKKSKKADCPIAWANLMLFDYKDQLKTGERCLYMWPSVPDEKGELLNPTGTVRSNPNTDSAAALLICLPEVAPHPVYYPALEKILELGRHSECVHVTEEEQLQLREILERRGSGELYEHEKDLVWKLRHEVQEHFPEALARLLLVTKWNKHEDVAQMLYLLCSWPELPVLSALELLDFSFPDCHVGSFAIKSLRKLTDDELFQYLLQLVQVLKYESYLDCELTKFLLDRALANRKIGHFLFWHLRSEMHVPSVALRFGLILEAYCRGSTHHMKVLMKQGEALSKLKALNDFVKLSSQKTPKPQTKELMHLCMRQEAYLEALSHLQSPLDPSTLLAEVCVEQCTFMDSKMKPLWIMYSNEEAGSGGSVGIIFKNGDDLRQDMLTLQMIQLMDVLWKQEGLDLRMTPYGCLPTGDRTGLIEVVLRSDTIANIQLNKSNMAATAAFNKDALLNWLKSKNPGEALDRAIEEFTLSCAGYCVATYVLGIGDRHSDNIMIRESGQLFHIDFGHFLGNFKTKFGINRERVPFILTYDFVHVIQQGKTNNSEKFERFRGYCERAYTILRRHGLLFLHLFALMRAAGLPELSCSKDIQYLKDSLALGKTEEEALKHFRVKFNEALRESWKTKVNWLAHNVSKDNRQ
Chain of PI3Kδ (p110δ/p85α) Recombinant Human Protein (P27986 whole entry partner): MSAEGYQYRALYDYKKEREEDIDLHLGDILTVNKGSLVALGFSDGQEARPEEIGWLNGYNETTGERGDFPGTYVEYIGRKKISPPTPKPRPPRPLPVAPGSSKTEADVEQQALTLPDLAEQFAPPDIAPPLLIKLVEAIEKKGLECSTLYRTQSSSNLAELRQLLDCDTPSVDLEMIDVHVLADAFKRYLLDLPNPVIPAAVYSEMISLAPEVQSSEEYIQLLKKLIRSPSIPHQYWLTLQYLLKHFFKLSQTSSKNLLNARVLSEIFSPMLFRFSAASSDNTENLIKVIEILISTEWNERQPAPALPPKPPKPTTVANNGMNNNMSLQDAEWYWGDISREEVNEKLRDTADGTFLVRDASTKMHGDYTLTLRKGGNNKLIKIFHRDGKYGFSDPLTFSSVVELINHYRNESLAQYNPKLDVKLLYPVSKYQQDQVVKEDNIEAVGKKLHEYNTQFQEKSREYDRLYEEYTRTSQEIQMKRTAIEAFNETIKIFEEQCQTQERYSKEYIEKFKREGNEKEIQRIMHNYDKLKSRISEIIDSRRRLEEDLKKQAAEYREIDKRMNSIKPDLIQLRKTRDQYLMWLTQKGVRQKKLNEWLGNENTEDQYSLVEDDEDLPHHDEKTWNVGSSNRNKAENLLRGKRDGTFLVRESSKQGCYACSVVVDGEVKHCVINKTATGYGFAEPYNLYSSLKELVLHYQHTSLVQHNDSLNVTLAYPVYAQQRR

Row | IC50 ([1]; Homo sapiens) | IC50 [2] | IC50 [3] | IC50 [1] | Compound
1 | > 1000 nM | < 100 nM | 500 to 2000 nM |  | Cc1ccc(S(=O)(=O)N2CCC3(CCO3)C2)cc1-c1cnc2c(N)ncnn12 (stereo not drawn) [Example 205, 7-(5-((1-Oxa-6-azaspiro[3.4]octan-6-yl)sulfonyl)-2-methylphenyl)imidazo[2,1-f][1,2,4]triazin-4-amine]
2 | > 1000 nM | < 100 nM | 500 to 2000 nM |  | Cc1ccc(S(=O)(=O)N2CCC3(CCOCC3)C2C)cc1-c1cnc2c(N)ncnn12 (stereo not drawn) [Example 206, 7-(2-Methyl-5-((1-methyl-8-oxa-2-azaspiro[4.5]decan-2-yl)sulfonyl)phenyl)imidazo[2,1-f][1,2,4]triazin-4-amine]
3 | 500 to 1000 nM | < 100 nM | 500 to 2000 nM |  | Cc1ccc(S(=O)(=O)N2CCCC23CCOC3)cc1-c1cnc2c(N)ncnn12 (stereo not drawn) [Example 208, 7-(5-((7-Oxa-1-azaspiro[4.4]nonan-1-yl)sulfonyl)-2-methylphenyl)imidazo[2,1-f][1,2,4]triazin-4-amine]
4 | 100 to 500 nM | < 100 nM | 100 to 500 nM |  | Cc1ccc(S(=O)(=O)N2CC3CCOCC3C2)cc1-c1cnc2c(N)ncnn12 (stereo not drawn) [Example 210, 7-(5-((Hexahydropyrano[3,4-c]pyrrol-2(3H)-yl)sulfonyl)-2-methylphenyl)imidazo[2,1-f][1,2,4]triazin-4-amine]
5 | 500 to 1000 nM | < 100 nM | 500 to 2000 nM |  | Cc1ccc(S(=O)(=O)N2CC(F)(F)C[C@H]2CO)cc1-c1cnc2c(N)ncnn12 [Example 212, (S)-(1-((3-(4-Aminoimidazo[2,1-f][1,2,4]triazin-7-yl)-4-methylphenyl)sulfonyl)-4,4-difluoropyrrolidin-2-yl)methanol]
6 | 100 to 500 nM | < 100 nM | 100 to 500 nM |  | Cc1ccc(S(=O)(=O)N[C@@H](C)CO)cc1-c1cnc2c(N)nc(C(F)(F)F)nn12 [Example 249, (S)-3-(4-Amino-2-(trifluoromethyl)imidazo[2,1-f][1,2,4]triazin-7-yl)-N-(1-hydroxypropan-2-yl)-4-methylbenzenesulfonamide]
7 | 100 to 500 nM | < 100 nM | 100 to 500 nM |  | Cc1ccc(S(=O)(=O)NC23CC(C#N)(C2)C3)cc1-c1cnc2c(N)ncnn12 [Example 250, 3-(4-Aminoimidazo[2,1-f][1,2,4]triazin-7-yl)-N-(3-cyanobicyclo[1.1.1]pentan-1-yl)-4-methylbenzenesulfonamide]
8 | < 100 nM | < 100 nM | 100 to 500 nM |  | Cc1ccc(S(=O)(=O)NC23CCC(C#N)(C2)C3)cc1-c1cnc2c(N)ncnn12 [Example 251, 3-(4-Aminoimidazo[2,1-f][1,2,4]triazin-7-yl)-N-(4-cyanobicyclo[2.1.1]hexan-1-yl)-4-methylbenzenesulfonamide trifluoroacetate salt]
9 | 100 to 500 nM | < 100 nM | 100 to 500 nM |  | [2H]C([2H])([2H])c1ccc(S(=O)(=O)NC23CCC(O)(C2)C3)cc1-c1cnc2c(N)nc(C(F)(F)F)cn12 [Example 252, 3-(8-Amino-6-(trifluoromethyl)imidazo[1,2-a]pyrazin-3-yl)-N-(4-hydroxybicyclo[2.1.1]hexan-1-yl)-4-(methyl-d3)benzenesulfonamide]
10 | < 100 nM | < 100 nM | 100 to 500 nM |  | [2H]C([2H])([2H])c1ccc(S(=O)(=O)NC23CCC(C#N)(C2)C3)cc1-c1cnc2c(N)ncnn12 [Example 253, 3-(4-Aminoimidazo[2,1-f][1,2,4]triazin-7-yl)-N-(4-cyanobicyclo[2.1.1]hexan-1-yl)-4-(methyl-d3)benzenesulfonamide (crystalline free base)]
11 | < 100 nM | < 100 nM | 100 to 500 nM |  | Cl.[2H]C([2H])([2H])c1ccc(S(=O)(=O)NC23CCC(C#N)(C2)C3)cc1-c1cnc2c(N)ncnn12 [Example 254, 3-(4-Aminoimidazo[2,1-f][1,2,4]triazin-7-yl)-N-(4-cyanobicyclo[2.1.1]hexan-1-yl)-4-(methyl-d3)benzenesulfonamide crystalline hydrochloric acid salt]
12 | < 100 nM | < 100 nM | 100 to 500 nM |  | O=S(=O)(O)c1ccccc1.[2H]C([2H])([2H])c1ccc(S(=O)(=O)NC23CCC(C#N)(C2)C3)cc1-c1cnc2c(N)ncnn12 [Example 255, 3-(4-Aminoimidazo[2,1-f][1,2,4]triazin-7-yl)-N-(4-cyanobicyclo[2.1.1]hexan-1-yl)-4-(methyl-d3)benzenesulfonamide crystalline benzenesulfonic acid salt]
13 | 100 to 500 nM | < 100 nM | 100 to 500 nM |  | Cc1ncc(S(=O)(=O)NC23CCC(C#N)(C2)C3)cc1-c1cnc2c(N)ncnn12 [Example 256, 5-(4-Aminoimidazo[2,1-f][1,2,4]triazin-7-yl)-N-(4-cyanobicyclo[2.1.1]hexan-1-yl)-6-methylpyridine-3-sulfonamide trifluoroacetate salt]
14 | > 1000 nM | < 100 nM | 500 to 2000 nM |  | Cc1ncc(S(=O)(=O)NC23CCC(C#N)(C2)C3)cc1-c1cnc2c(N)nc(C(F)(F)F)cn12 [Example 257, 5-(8-amino-6-(trifluoromethyl)imidazo[1,2-a]pyrazin-3-yl)-N-(4-cyanobicyclo[2.1.1]hexan-1-yl)-6-methylpyridine-3-sulfonamide]
15 | 500 to 1000 nM | < 100 nM | 100 to 500 nM |  | Cc1nc2c(N)ncnn2c1-c1cccc(S(=O)(=O)NC23CCC(C#N)(C2)C3)c1 [Example 258, 3-(4-Amino-6-methylimidazo[2,1-f][1,2,4]triazin-7-yl)-N-(4-cyanobicyclo[2.1.1]hexan-1-yl)benzenesulfonamide trifluoroacetate salt]
16 | < 100 nM | < 100 nM | 100 to 500 nM |  | Cc1ccc(S(=O)(=O)NC23CCC(CO)(C2)C3)cc1-c1cnc2c(N)nc(C3CC3)nn12 [Example 259, 3-(4-Amino-2-cyclopropylimidazo[2,1-f][1,2,4]triazin-7-yl)-N-(4-(hydroxymethyl)bicyclo[2.1.1]hexan-1-yl)-4-methylbenzenesulfonamide trifluoroacetate salt]
17 | < 100 nM | < 100 nM | 500 to 2000 nM |  | [2H]C([2H])([2H])c1ccc(S(=O)(=O)N(C)C23CCC(C#N)(C2)C3)cc1-c1cnc2c(N)ncnn12 [Example 261, 3-(4-Aminoimidazo[2,1-f][1,2,4]triazin-7-yl)-N-(4-cyanobicyclo[2.1.1]hexan-1-yl)-N-methyl-4-(methyl-d3)benzenesulfonamide]
18 | 100 to 500 nM | < 100 nM | < 100 nM |  | Cc1cn2c(-c3cc(S(=O)(=O)NC45CCC(CO)(C4)C5)ccc3C)cnc2c(N)n1 [Example 262, 3-(8-Amino-6-methylimidazo[1,2-a]pyrazin-3-yl)-N-(4-(hydroxymethyl)bicyclo[2.1.1]hexan-1-yl)-4-methylbenzenesulfonamide]
19 | 100 to 500 nM | < 100 nM | 100 to 500 nM |  | Cc1cn2c(-c3cc(S(=O)(=O)NC45CCC(C#N)(C4)C5)ccc3C)cnc2c(N)n1 [Example 263, 3-(8-Amino-6-methylimidazo[1,2-a]pyrazin-3-yl)-N-(4-cyanobicyclo[2.1.1]hexan-1-yl)-4-methylbenzenesulfonamide trifluoroacetate salt]
20 | 100 to 500 nM | < 100 nM | 100 to 500 nM |  | Cc1cn2c(-c3cc(S(=O)(=O)NC45CC(C#N)(C4)C5)ccc3C)cnc2c(N)n1 [Example 264, 3-(8-Amino-6-methylimidazo[1,2-a]pyrazin-3-yl)-N-(3-cyanobicyclo[1.1.1]pentan-1-yl)-4-methylbenzenesulfonamide trifluoroacetate salt]
21 |  | < 100 nM | < 100 nM | < 100 nM | Cc1nc(N)c2ncc(-c3cc(S(=O)(=O)NC45CCC(C#N)(C4)C5)ccc3C)n2n1 [Example 265, 3-(4-Amino-2-methylimidazo[1,2-f][1,2,4]triazin-7-yl)-N-(4-cyanobicyclo[2.1.1]hexan-1-yl)-4-methylbenzenesulfonamide trifluoroacetate salt]
22 |  | < 100 nM | 100 to 500 nM | 100 to 500 nM | Cc1nc(N)c2ncc(-c3cc(S(=O)(=O)NC45CCC(CO)(C4)C5)ccc3C)n2n1 [Example 268, 3-(4-Amino-2-methylimidazo[1,2-f][1,2,4]triazin-7-yl)-N-(4-(hydroxymethyl)bicyclo[2.1.1]hexan-1-yl)-4-methylbenzenesulfonamide trifluoroacetate salt]
23 |  | < 100 nM | 100 to 500 nM | 100 to 500 nM | Cc1nc(N)c2ncc(-c3cc(S(=O)(=O)NCC4(O)CCC4)ccc3C)n2n1 [Example 269, 3-(4-Amino-2-methylimidazo[1,2-f][1,2,4]triazin-7-yl)-N-((1-hydroxycyclobutyl)methyl)-4-methylbenzenesulfonamide trifluoroacetate salt]
24 |  | < 100 nM | 100 to 500 nM | < 100 nM | Cc1nc(N)c2ncc(-c3cc(S(=O)(=O)NC45CC(C#N)(C4)C5)ccc3C)n2n1 [Example 270, 3-(4-Amino-2-methylimidazo[1,2-f][1,2,4]triazin-7-yl)-N-(3-cyanobicyclo[1.1.1]pentan-1-yl)-4-methylbenzenesulfonamide trifluoroacetate salt]
